# Measurements published in patent publication US20220133679A1, “EFFLUX INHIBITOR COMPOSITIONS AND METHODS OF TREATMENT USING THE SAME” (Izumi Technology, LLC, priority 2012, published 2022).
# Assays:
# MDCK cell monolayer = test: in vitro; type: in vitro ADME; settings: dog, 1 μM
# Method: (§1) An in vitro permeability assay using the MDCK cell line was performed to investigate the ability of elacridar to cross cellular membranes. […] Specifically, non-transduced MDCK cells, expressing only basal amounts of endogenous ABC-transporters, were seeded in the apical compartments of a 24 mm Transwell plate (3.0 μm Pore Polycarbonate Membrane Inserts) and incubated at 37° C. and 5.0% CO2 conditions until confluency was reached. Both apical-to-basolateral and basolateral-to-apical transport was analyzed in triplicate. To each donor compartment, 2 ml of Minimal Essential Medium (supplemented with 20% Fetal Bovine Serum) containing 1 μM elacridar and 50 nCi/ml (1.85 kBq/ml)^14C-inulin was added, while each acceptor compartment was filled with 2 ml blank Minimal Essential Medium (supplemented with 20% Fetal Bovine Serum). Samples of 100 μl were taken from each acceptor compartment at t=5 min, 30 min, 1 h, 2 h and 4 h as well as from all donor solutions for HPLC-MS/MS analysis of elacridar.
# (§2) Samples for HPLC-MS/MS analysis were prepared as follows. Samples (50 μl) were pipetted into a 2 ml eppendorf vial and the internal standard (IS) solution (1 μM of elacridar-d4) in Minimal Essential Medium (supplemented with 20% Fetal Bovine Serum) and 1 ml of diethyl ether were added. […] An aliquot of 75 μl was subjected to HPLC-MS/MS using the conditions and set-up as described above for elacridar.
# (§3) Leakage of the transwell membrane, as indicated by ^14C-inulin accumulation in the acceptor compartment, was analyzed in 10 μl samples from all time points as well as donor solutions. To each sample, 3 ml of Ultima Gold solution was added and vials were mixed thoroughly prior to radioactivity analysis using a Liquid Scintillation Counter.
# in vitro = in vitro ADME; settings: dog, MDCK
# Method: as §1, §2, §3
# [1] = set-up: species or system female Sprague-Dawley rats; settings: rat, in vivo, 100 mg/kg
# Method: Studies were conducted in female Sprague-Dawley rats. […] The selected 100 mg/kg dose is well above the level where nonlinear pharmacokinetics have been documented. Ten animals were used at weekly intervals between each dosing to allow washout of the drug from the previous dosing.
# Elacridar suspension formulation was prepared by weighing 100.03 mg of elacridar, which was first suspended in 5 ml of water, followed by 5 ml of vehicle solution (2.5% w/v of hydroxypropyl methyl cellulose (HPMC) and 2% v/v of Tween 80). This suspension was stirred for about 2.5 hours prior to dosing. The final concentration was 10 mg/ml. This suspension was given at 10 μl per gram body weight to achieve a dose level of 100 mg/kg
# Elacridar nanoparticle (NP) suspensions were used as received, except for a final 5-fold dilution step to obtain a NP suspension of 10 mg/ml of elacridar.
# There were three study groups: 1) Elacridar Suspension (n=4); 2) Elacridar TPGS nanoparticles (n=5); and 3) Elacridar Poloxamer nanoparticles (n=5). All animals received elacridar orally by gavage under light isoflurane anesthesia. The animals were fasted for a period of 3 h before drug administration. Food pellets were returned to the cages after the 4 h sampling point. Blood samples from the tail vein at: 15, 30 min, 1, 2, 4, 7, 24, 30 and 48 hours. Samples were kept on ice and centrifuged within 2 h to separate plasma. Plasma was stored at −20° C.
# Formulation for i.v. administration was prepared by weighing 61.12 mg of elacridar and dissolving this in 2.056 ml of DMSO. The final concentration was 30 mg/ml. Animals (n=4) received […] per gram body weight (5 mg/kg). Blood samples were taken from the tail vein at: 5, 15, 30 min, 1, 2, 4, 7, 24, 30 and 48 h. Samples were kept on ice and centrifuged within 2 h to separate plasma. Plasma was stored at −20° C.
# Samples were pre-treated as follows. […] 1000 μl of diethyl ether was added.
smiles,measurement,setting,value
COc1cc2c(cc1OC)CN(CCc1ccc(NC(=O)c3cccc4c(=O)c5cccc(OC)c5[nH]c34)cc1)CC2 [elacridar],amount of elacridar at the receptor side relative to drug content at the donor side,MDCK cell monolayer,about 6%
same,"Papp A→B at 4 h, 1 μM",in vitro,112 nm/s
same,"Papp B→A at 4 h, 1 μM",in vitro,109 nm/s
same,tolerability of dosing,[1],tolerated these doses of elacridar without any problem
